What was measured:
Format in all cases: biochemical, human
LDL [1] = experiment: CuSO4-induced LDL oxidation measured by TBARS formation; settings: CuSO4 (5 μM)-induced LDL oxidation; oleoresin concentration as lycopene; read-out: IC50 for the inhibition of TBARS formation
Protocol: (§1) Stock solutions of 1 mM of purified lycopene or of 10 mg/ml of tomato's oleoresin, were prepared in Tetrahydrofuran (THF, HPLC grade). All procedures were performed in dim light. LDL was incubated with the respective concentrations of tomato's oleoresin or with 3 μM of lycopene (3 μl/ml THF, derived from a stock solution of 1 mM) for 30 minutes at 37° C. in the dark. LDL incubated with THF alone served as control.
(§2) Oxidation of LDL was carried out in a shaking water bath at 37° C. under air, in plastic tubes (1 cm in diameter). For metal ions dependent oxidation LDL was incubated for 4 hours at 37° C. with freshly prepared CuSO4 (5 μM).
(§3) LDL oxidation was determined by measuring the amount of thiobarbituric acid reactive substances (TBARS) (See: Buege J. A. and Aust S. D. Microsomal lipid peroxidation. Methods Enzymol. 1978; 52: 302-310) and by lipid peroxides formation using a commercially available kit.
(§4) LDL (100 μg of protein/ml) was preincubated for 30 min at 37° C. with either vitamin E or lycopene in various forms. LDL oxidation was induced by the addition of 5 μM of CuSO4 and was […] for 30 min at 37° C. LDL oxidaton was measured by the TBARS assay or by measuring the inhibition of the formation of lipid peroxides. Results are shown in FIG. 1 for vitamin E inhibition and FIG. 2 for crystalline lycopene. […]

LDL [2] = experiment: CuSO4-induced LDL oxidation measured by lipid peroxides formation; settings: CuSO4 (5 μM)-induced LDL oxidation; > = maximal concentration used did not achieve 50% inhibition
Protocol: as §1, §2, §3, §4

LDL [3] = experiment: Copper ions-induced LDL oxidation, Colby equation data, readout not marked (TBARS / lipid peroxides)
Protocol: as §1, §2, §3, §4

| IC50 (LDL [1]) | IC50 (LDL [2]) | Molecule | B = Percent control of lycopene alone (LDL [3]; Experiment 1: 1 μM crystalline lycopene alone) | A = Percent control of vitamin E alone (LDL [3]; 1 μM vitamin E alone) |
| --- | --- | --- | --- | --- |
| > 50 µM | > 50 µM | CC(C)=CCC/C(C)=C/C=C/C(C)=C/C=C/C(C)=C/C=C/C=C(C)/C=C/C=C(C)/C=C/C=C(\C)CCC=C(C)C [Crystalline lycopene, lycopene] | 0% |  |
| 6 µM | 6.5 µM | Vitamin E |  | 0% |

Reference: patent US6515018B1, “Synergistic compositions for lycopene and Vitamin E for the prevention of LDL oxidation” (Lycored Natural Products Industries Ltd., priority 1997, dated 2003)
